From US12201609B2, “Saroglitazar for the treatment of hepatocellular carcinoma” (CADILA HEALTHCARE LIMITED, priority 2018, dated 2025)

Test system: Hepatocellular Carcinoma Induced by Intraperitoneal Injection of Diethylnitrosamine in C57/BL6 Mice
Experiment: Saroglitazar efficacy in hepatocellular carcinoma induced by diethylnitrosamine (DEN) injection and CDAHFD feeding in mice
Format: in vivo, C57BL/6 male mice
Details: CDAHFD-DEN mice; for Serum ALT levels, % Change Vs Disease Control / Serum AST levels, % Change Vs Disease Control / Serum TG levels, % Change Vs Disease Control / % animals showing liver tumor / No. of animal with tumor / No. of liver tumors/animal / Serum ALT levels / Serum AST levels / Serum TG levels: p.o.; for % animals showing liver tumor / No. of animal with tumor / No. of liver tumors/animal: 27 weeks treatment; for Serum ALT levels / Serum AST levels / Serum TG levels: at termination
Source text: Evaluation of Saroglitazar's efficacy in Hepatocellular Carcinoma Induced by Intraperitoneal Injection of Diethylnitrosamine in C57/BL6 Mice.
In this study, hepatocellular carcinoma (HCC) was induced in C57BL/6 male mice first by injecting them with diethylnitrosamine (DEN) and by then feeding them a choline-deficient, L-amino acid-defined, high-fat diet (CDAHFD); Developed an experimental mouse model of hepatocellular carcinoma (Ohno T, Shimizu M, Shirakami Y, Baba A, Kochi T, Kubota M, et al. (2015) Metformin Suppresses Diethylnitrosamine-Induced Liver Tumorigenesis in Obese and Diabetic C57BL/KsJ−+Leprdb/+Leprdb Mice. PLoS ONE 10(4): e0124081; Journal of Cancer, 2018; 9(5): 914-922;)
The objective of this study was to evaluate the efficacy of Saroglitazar for prevention and or regression of hepatocellular carcinoma in mice after intraperitoneal injection of diethylnitrosamine and feeding of Choline deficient, L-amino acid-defined, High-fat Diet.
HCC was induced in C57BL/6 male mice by feeding them a choline-deficient, L-amino acid-defined, high-fat diet (CDAHFD) and administration of diethylnitrosamine (DEN). DEN was administered one-time by intraperitoneal route at the age of 3-weeks. Treatment with Saroglitazar (1 and 3 mg/kg) was initiated after 8 weeks of CDAHFD initiation and continued for 27 weeks.
After 8 weeks of CDAHFD diet (or DEN administration) blood collection was performed for serum ALT, AST and on the basis serum ALT level animals were divided in to following groups: • 1. Control for CDAHFD+Vehicle (n=10)—Normal Control • 2. CDAHFD—Saline+Vehicle (n=10)—CDAHFD Control • 3. CDAHFD—DEN+Vehicle (n=15)—Disease Control • 4. CDAHFD—DEN+Saroglitazar 1 mg/kg, p.o. (n=15)—D-Saro (1 mg/kg, p.o.) • 5. CDAHFD—DEN+Saroglitazar 3 mg/kg, p.o. (n=15)—D-Saro (3 mg/kg, p.o.)
Test compound formulation was prepared in Tween 80 and 0.5% sodium CMC in ratio of 0.5:99.5 in such that volume of administration will be 10 ml/kg.
Treatment along with diet was continued for 27 weeks.
In this study almost 50% animals from each group were terminated at 31 weeks after DEN injection and remaining 50% animals were sacrificed at 35 weeks after DEN administration (i.e. completion of 27 weeks of treatment). At termination, blood collection was performed for serum parameters like ALT, AST and TG. Animals were sacrificed; spleen and liver will be collected and weighed. Liver will be observed for presence of tumors, number of tumors and size of tumors. Liver was collected for liver biochemistry, histology

SMILES: CCO[C@@H](Cc1ccc(OCCn2c(C)ccc2-c2ccc(SC)cc2)cc1)C(=O)O [Saroglitazar]
- prevention of hepatic carcinogenesis (3 mg/kg dose): 100%
- tumor in liver (in words) (3 mg/kg dose): did not show any tumor in liver
- reduction in serum ALT (3 mg/kg, vs disease control): 40%
- reduction in serum AST (3 mg/kg, vs disease control): 44%
- effect on liver tumor incidence (in words) (1 and 3 mg/kg): dose dependent effect on liver tumor incidence
- serum triglycerides levels (in words) (1 and 3 mg/kg): dose dependent reduction
- Serum ALT levels, % Change Vs Disease Control (Saroglitazar 1 mg/kg): −33.6%
- Serum AST levels, % Change Vs Disease Control (Saroglitazar 1 mg/kg): −36.2%
- Serum TG levels, % Change Vs Disease Control (Saroglitazar 1 mg/kg): −38.4%
- % animals showing liver tumor (Saroglitazar 1 mg/kg): 20.0%
- No. of animal with tumor (Saroglitazar 1 mg/kg): 3 out of 15
- No. of liver tumors/animal (Saroglitazar 1 mg/kg): 0.3
- Serum ALT levels (Saroglitazar 1 mg/kg): 232.3 U/L
- Serum AST levels (Saroglitazar 1 mg/kg): 231.1 U/L
- Serum TG levels (Saroglitazar 1 mg/kg): 42.7 mg/dL
- Serum ALT levels, % Change Vs Disease Control (Saroglitazar 3 mg/kg): −39.9%
- Serum AST levels, % Change Vs Disease Control (Saroglitazar 3 mg/kg): −43.9%
- Serum TG levels, % Change Vs Disease Control (Saroglitazar 3 mg/kg): −54.6%
- % animals showing liver tumor (Saroglitazar 3 mg/kg): 0.0%
- No. of animal with tumor (Saroglitazar 3 mg/kg): 0 out of 15
- No. of liver tumors/animal (Saroglitazar 3 mg/kg): 0.0
- Serum ALT levels (Saroglitazar 3 mg/kg): 210.5 U/L
- Serum AST levels (Saroglitazar 3 mg/kg): 203.0 U/L
- Serum TG levels (Saroglitazar 3 mg/kg): 31.5 mg/dL
- liver injury markers, serum ALT and AST (in words) (Saroglitazar treatment): significant reduction
